Assay results: ChEMBL document CHEMBL1151778, “Synthesis of macrocyclic trypanosomal cysteine protease inhibitors” (Bioorg Med Chem Lett, 2008)

Legend:
Rhodesain = Rhodesain (Trypanosoma brucei rhodesiense, UniProt Q95PM0); experiment: Inhibition of Trypanosoma brucei rhodesiense recombinant rhodesain by fluorescence technique
Cruzipain = Cruzipain (Trypanosoma cruzi, UniProt P25779); experiment: Inhibition of Trypanosoma cruzi recombinant cruzain by fluorescence technique
Sequence of Cruzipain (P25779 whole entry): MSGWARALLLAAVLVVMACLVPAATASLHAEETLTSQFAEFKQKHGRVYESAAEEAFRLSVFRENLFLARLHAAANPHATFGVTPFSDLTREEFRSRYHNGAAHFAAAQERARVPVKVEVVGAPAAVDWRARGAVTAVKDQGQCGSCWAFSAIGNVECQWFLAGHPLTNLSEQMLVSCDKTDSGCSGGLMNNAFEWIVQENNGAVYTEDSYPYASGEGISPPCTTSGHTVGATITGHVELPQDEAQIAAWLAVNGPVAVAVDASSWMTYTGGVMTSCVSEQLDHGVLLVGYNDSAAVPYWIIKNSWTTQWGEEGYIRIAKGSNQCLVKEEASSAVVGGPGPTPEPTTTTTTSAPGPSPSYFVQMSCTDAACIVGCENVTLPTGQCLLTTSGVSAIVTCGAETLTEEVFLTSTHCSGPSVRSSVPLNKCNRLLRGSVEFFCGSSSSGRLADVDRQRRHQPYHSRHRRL

Sequence of Rhodesain (Q95PM0 whole entry): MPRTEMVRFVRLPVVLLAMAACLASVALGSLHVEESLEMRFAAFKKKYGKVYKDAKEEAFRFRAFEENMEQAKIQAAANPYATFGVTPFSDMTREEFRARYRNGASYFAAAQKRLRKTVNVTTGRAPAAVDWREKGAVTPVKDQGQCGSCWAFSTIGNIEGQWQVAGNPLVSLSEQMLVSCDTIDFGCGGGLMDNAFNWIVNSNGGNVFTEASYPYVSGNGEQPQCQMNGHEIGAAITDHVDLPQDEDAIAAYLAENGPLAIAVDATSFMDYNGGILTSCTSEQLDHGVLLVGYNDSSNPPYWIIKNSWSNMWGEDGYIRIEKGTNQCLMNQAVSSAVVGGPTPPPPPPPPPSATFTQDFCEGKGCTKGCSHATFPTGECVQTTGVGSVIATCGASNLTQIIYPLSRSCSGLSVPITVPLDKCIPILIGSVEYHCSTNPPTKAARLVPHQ

SMILES	IC50 (Rhodesain) [µM]	IC50 (Cruzipain) [µM]
CC(C)C[C@@H]1N[C@@H](C(=O)Nc2ccccc2)CCCC[C@@H](/C=C/S(=O)(=O)c2ccccc2)NC1=O	10	> 10
CC(C)C[C@@H]1N[C@@H](C(=O)Nc2ccccc2)CCCCC[C@@H](/C=C/S(=O)(=O)c2ccccc2)NC1=O	6	2
